The results in this text go back to PubChem BioAssay AID1996.

≈ marks a conversion by molar mass, not a printed value. Non-standard residues stand in square brackets, D forms with d. Residues, ends and D or L forms follow the SMILES beside them. *: point of attachment. Tic = O=C(O)[C@@H]1Cc2ccccc2CN1; NHPr = CCCN* A value given as a limit tells only on which side of the number the result lay.

For this data set the following is noted: buffer; pH 7.4; 200.0 µM.
For `CCOC(=O)c1cc(C(=O)NC(C)c2ccccc2)c(C)[nH]c1=O` (stereo not drawn), the kinetic solubility amounted to 2.7 µg/mL (≈ 8.22 µM). With `COC(=O)c1ccc(C(=O)Nc2ccc(C(C)C)cc2N)cc1` the figure was 2.5 µg/mL (≈ 8 µM); with `CC(=O)c1c(C)[nH]c(C(=O)/C(C#N)=C/c2cccc(C)c2)c1C`, 39.5 µg/mL (≈ 129 µM). With `CCn1c(=O)cc(C(F)(F)F)[nH]c1=S` the figure was above 33.6 µg/mL.

The compound `COc1ccc(C(=O)N/C(=C\c2ccccc2)C(=O)Nc2ccccc2C(=O)O)cc1` registered a kinetic solubility above 62.5 µg/mL.

In the case of `COc1ccc(N2CCC(CNC(=O)Nc3ccccc3)C2)cc1` (stereo not drawn), the solubility (kinetic) is 14.8 µg/mL (≈ 45.5 µM). With `Cc1cc(S(=O)(=O)N2CCN(C(=O)c3ccco3)CC2)ccc1F` the figure was above 52.9 µg/mL; with `CCOC(=O)N1CCN(C(=O)COc2cccc3c2CCN(CC)C3=O)CC1`, 44.5 µg/mL (≈ 114 µM). With `Cc1noc(C(=O)NC2CCCCC2)c1Cl`, the solubility (kinetic) is 35.6 µg/mL (≈ 147 µM). In turn, `O=C(Nc1ccc(Cl)c(C(F)(F)F)c1)c1ccncc1` yielded a kinetic solubility of 38.7 µg/mL (≈ 129 µM).

Compound `COc1ccc(OC)c(C(=O)/C=C/c2cccnc2)c1` gave a kinetic solubility above 40.4 µg/mL. With `CCCCON1C(=O)c2cccc3cccc(c23)C1=O` the figure was 8.8 µg/mL (≈ 32.7 µM); with `CNc1nc(N)c([N+](=O)[O-])c(NCC2CCCO2)n1` (stereo not drawn), above 40.2 µg/mL; with `COc1ccc(CCNS(=O)(=O)c2ccc3[nH]c(=O)[nH]c3c2)cc1`, 11.3 µg/mL (≈ 32.5 µM). As for `CC1CN(C(=O)c2ccc(COc3ccccc3Cl)o2)CC(C)O1` (stereo not drawn), the kinetic solubility is above 52.5 µg/mL.

In turn, `N#CCc1ccc(Oc2ncccn2)cc1` registered a solubility (kinetic) above 31.7 µg/mL.

The compound `CN(CC(=O)Nc1ccc(F)cc1)C(=O)c1ccncc1` yielded a kinetic solubility above 43.1 µg/mL.

Turning to `CCCNC(=O)[C@@H]1CCCN1C(=O)[C@@H]1Cc2ccccc2CN1.Cl` (H-[Tic]-Pro-NHPr), the solubility (kinetic) was above 52.8 µg/mL. The compound `Cc1ccc2c(CN3CCOCC3)cc(=O)oc2c1` came in with a solubility (kinetic) above 38.9 µg/mL.

`Cc1c(C(=O)N2CCOCC2)sc(NC(=O)C(C)C)c1C#N` returned a solubility (kinetic) above 48.2 µg/mL. In the case of `COc1cccc(C(=O)N2CCN=C2SC)c1`, the kinetic solubility is 35.1 µg/mL (≈ 140 µM). In turn, `CCN(CC)C(=O)Oc1ccnc2cc(Cl)ccc12` displayed a kinetic solubility above 41.8 µg/mL. With `CN1CCN(c2nc(-c3ccc(Cl)cc3)cc(=O)[nH]2)CC1` the figure was 39.8 µg/mL (≈ 131 µM).

`Cc1nc(S(=O)(=O)Nc2ccccc2C(=O)NCC2CC2)cn1C` registered a kinetic solubility above 52.3 µg/mL. In the case of `O=[N+]([O-])c1ccc(Sc2n[nH]c(-c3ccncc3)n2)nc1` it was above 45 µg/mL. Compound `CCOC(=O)c1c(C)[nH]c(C)c1C(=O)COC(=O)c1ccc(O)cc1` yielded a kinetic solubility above 51.8 µg/mL.

On to `O=C(COC(=O)CNC(=O)c1ccccc1F)NC1CC1`, for which the solubility (kinetic) is above 44.1 µg/mL.

Turning to `O=C(CCCn1c(=O)[nH]c2ccccc2c1=O)Nc1ccc(F)cc1`, the kinetic solubility came out at 7.7 µg/mL (≈ 22.6 µM). With `CC(C)(C)OC(=O)N1CCN(c2ccc([N+](=O)[O-])cc2)CC1` the figure was 1.9 µg/mL (≈ 6.18 µM); with `COC(=O)c1ccccc1S(=O)(=O)N1CCn2cccc2C1C` (stereo not drawn), 43.2 µg/mL (≈ 129 µM); with `CCc1nnc(NC(=O)CN2CCN(S(C)(=O)=O)CC2)s1`, above 50 µg/mL. With `Cc1ccc(CN2CCN(Cc3ccc(OC(C)C)cc3)CC2CCO)o1` (stereo not drawn) the figure was 41.2 µg/mL (≈ 111 µM); with `COc1ccccc1Nc1nc(N)nc(CN2CCCCC2)n1`, above 47.2 µg/mL. In the case of `CCC1CCCCN1C(=O)COc1ccc(F)cc1` (stereo not drawn) it was 38.1 µg/mL (≈ 144 µM); in that of `CN(CCOC(=O)/C=C/c1ccco1)Cc1ccccc1`, above 42.8 µg/mL. In turn, `COc1ccc(CNC(=O)COC(=O)c2cc3ccccc3o2)cc1` returned a kinetic solubility of 5.4 µg/mL (≈ 15.9 µM). `Cc1ccccc1CN1CCN(CC2CC2)CC1CCO` (stereo not drawn) registered a kinetic solubility above 43.3 µg/mL. In the case of `COc1ccc(N2CCN(C(=O)c3cc(C)on3)CC2)cc1` it was above 45.2 µg/mL; in that of `COc1ccc(C)cc1NC(=O)COC(=O)c1ccc([N+](=O)[O-])o1`, 3.4 µg/mL (≈ 10.2 µM). With `COC(=O)/C=C1\NCCNC1=O` the figure was above 25.5 µg/mL; with `Cl.O=C(c1cc2ccccc2o1)N1CCN(Cc2ccccc2)CC1`, 41.5 µg/mL. In the case of `CCC(CC)NC(=O)CO/N=C/c1ccc(Cl)cc1Cl` it was 3 µg/mL (≈ 9.46 µM); in that of `O=C1c2ccc(Oc3ccc([N+](=O)[O-])cc3)cc2C(=O)N1CCCO`, 49 µg/mL (≈ 143 µM). Compound `CC(=O)Oc1cccc(-c2nc3ccccc3c(=O)o2)c1` registered a kinetic solubility of 7.9 µg/mL (≈ 28.1 µM). `CNC(=O)CSc1nccn1Cc1ccc(Cl)cc1` showed a solubility (kinetic) above 44.4 µg/mL.

The compound `C/C(=N\OC(=O)c1ccc(C)cc1)c1c(C)nc2cc(C)ccn12` registered a kinetic solubility of 6.6 µg/mL (≈ 20.5 µM). In turn, `COc1ccc(OC)c(CNC(=O)CCc2cn(C)c3ccccc23)c1` registered a kinetic solubility of 12.7 µg/mL (≈ 36 µM).

Consider `c1ccc2oc(NC3=NCN(C4CCCCC4)CN3)nc2c1`, for which the kinetic solubility is 1.3 µg/mL (≈ 4.34 µM). In the case of `Cc1ccc2c(c1)NC(=O)c1cccc([N+](=O)[O-])c1CO2` it was 7 µg/mL (≈ 24.6 µM); in that of `O=C(c1ccccc1)c1nccn1-c1ccc(Cl)nn1`, above 42.7 µg/mL. In the case of `O=C(Nc1ccc(Cl)c([N+](=O)[O-])c1)c1ccc2c(c1)OCCO2` it was below 0.4 µg/mL; in that of `CCOc1ccc(S(=O)(=O)/N=C(\N)c2ccccc2)cc1`, above 45.7 µg/mL; in that of `NC(N)=NCCCC(NC(=O)c1ccccc1)C(=O)Nc1ccc2ccccc2c1` (stereo not drawn), 52.2 µg/mL (≈ 129 µM).

For `COCCCNC(=O)c1ccc(-c2csc(C)n2)cc1`, the kinetic solubility is above 43.6 µg/mL.

`O=C(c1ccc(F)cc1)N(c1ccccn1)C1CCCCC1` showed a kinetic solubility of 42.6 µg/mL (≈ 143 µM).

`CCOc1ccc(-c2csc3ncn(-c4ccc(OC)cc4)c(=O)c23)cc1`: the solubility (kinetic) stood at 0.4 µg/mL (≈ 1.06 µM). In the case of `Cc1ccc(CNCCc2ccccc2F)s1` it was 33.2 µg/mL (≈ 133 µM); in that of `CCCc1cc(=O)[nH]c(SCC(=O)Nc2c(C)n(C)n(-c3ccccc3)c2=O)n1`, above 62 µg/mL. In turn, `C=CCn1c(C)nc2ccccc2c1=O` had a solubility (kinetic) above 30 µg/mL. Compound `COc1nc(C)nc(NC(=O)NS(=O)(=O)c2ccccc2Cl)n1` had a kinetic solubility above 53.7 µg/mL. With `CC1CCCCN1C(=O)CSc1nnc2ccccn12` (stereo not drawn) the figure was above 43.6 µg/mL; with `Cc1cc(C)c(C#N)c(SCCN2CCOCC2)n1`, above 41.6 µg/mL; with `COc1ccc(C2(C(=O)Nc3ccc(C)cc3)CCOCC2)cc1`, above 48.8 µg/mL. In the case of `CN(C)CCNC(=O)Nc1ccc([N+](=O)[O-])cc1` it was above 37.8 µg/mL.

For the compound `Cc1c(C(=O)N2CCOCC2)oc2ccccc12`, the kinetic solubility was above 36.8 µg/mL. On to `CC(NC(=O)C1CC1)c1ccc(-c2ccccc2)cc1` (stereo not drawn), for which the kinetic solubility is 1.5 µg/mL (≈ 5.65 µM).

Turning to `Cc1cc(NS(=O)(=O)c2ccc(NC(=O)Cc3ccc([N+](=O)[O-])cc3)cc2)nc(C)n1`, the solubility (kinetic) was above 66.2 µg/mL. Turning to `O=C(Nc1nccs1)c1ccc(Cl)c([N+](=O)[O-])c1`, the kinetic solubility was 6.9 µg/mL (≈ 24.3 µM).

`CCNC(=O)N1CCN(C(=O)NCC)CC1` came in with a solubility (kinetic) of 13.6 µg/mL (≈ 59.6 µM). With `Cc1nc2ccccc2c2oc(C(=O)N3CCCC(C)C3)cc12` (stereo not drawn) the figure was 44.6 µg/mL (≈ 145 µM). With `O=C(CN1CCOCC1)NCc1ccccc1Cl` the figure was above 40.3 µg/mL; with `O=C(Nc1ccccc1N1CCCC1)c1ccc2ccccc2c1`, 2.7 µg/mL (≈ 8.53 µM). In the case of `O=C(OCC(=O)N1CCCC1)c1cc(F)c(F)cc1Cl` it was 45.3 µg/mL (≈ 149 µM); in that of `Cc1ccc(C(=O)Nc2c(C)cc(C)c3cccnc23)cc1`, 0.5 µg/mL (≈ 1.72 µM); in that of `Cc1ccc(C)c(NC(=O)NCCN2CCCCC2)c1`, 35.6 µg/mL (≈ 129 µM). In turn, `O=C1NC(c2ccc(Cl)cc2Cl)Oc2ccccc21` (stereo not drawn) gave a solubility (kinetic) of 0.9 µg/mL (≈ 3.06 µM). In the case of `COc1ccc(/C=C/C(=O)c2c(C)cc(C)[nH]c2=O)c2ccccc12` it was 15.7 µg/mL (≈ 47.1 µM); in that of `Cn1cccc1C(=O)C(=O)Nc1ccccc1C(F)(F)F`, 5 µg/mL (≈ 16.9 µM); in that of `Cc1cc(C(=O)N2CCN(c3ccccc3Cl)CC2)c(C)o1`, above 47.8 µg/mL. In the case of `O=C1c2ccccc2C(O)N1c1ccccc1` (stereo not drawn) it was above 33.8 µg/mL; in that of `COc1ccccc1CNC(=O)C(Cc1ccccc1)NC(=O)c1ccccc1` (stereo not drawn), 12.8 µg/mL (≈ 33 µM). For the compound `COc1ccc2cc(C(=O)NCCc3ccccc3)[nH]c2c1`, the solubility (kinetic) was below 0.3 µg/mL.

In the case of `Cc1ccc2cc(/C=N/NC(=O)CN3CCCCC3)c(Cl)nc2c1`, the kinetic solubility was above 51.7 µg/mL. In the case of `O=C(NCCCNC(=O)c1ccc(Cl)cc1Cl)c1ccco1` it was 50.1 µg/mL (≈ 147 µM); in that of `O=C(Nc1cccc(Cl)c1)c1ccc2c(c1)OCCO2`, 6.3 µg/mL (≈ 21.7 µM).

On to `Cc1ccc(N2C(=O)CC(Cc3ccc(Cl)cc3)C2=O)cc1` (stereo not drawn), for which the solubility (kinetic) was determined as 7.1 µg/mL (≈ 22.6 µM). With `COc1ccc(OC)c(NC(=O)COC(=O)/C=C/c2ccco2)c1` the figure was 10.4 µg/mL (≈ 31.4 µM); with `Cc1ccc(OCC(=O)OCC(=O)Nc2ccc3c(c2)OCO3)cc1C`, 9.6 µg/mL (≈ 26.9 µM). `Cc1ccc(C)c(N2CCN(CC3CCCCC3)CC2)c1` yielded a solubility (kinetic) of 2.3 µg/mL (≈ 8.03 µM). With `O=C(COC(=O)c1cncc(Br)c1)NC1CCCCC1` the figure was 46.6 µg/mL (≈ 137 µM); with `Cc1ccc2c(=O)cc(C(=O)NCc3ccccc3)oc2c1C`, below 0.7 µg/mL; with `O=[N+]([O-])c1ccc(Sc2ncc3ccccn23)nc1`, 20.6 µg/mL (≈ 75.7 µM). With `Cl.O=C(COc1ccc(Cl)cc1)NCCN1CCCC1`, the solubility (kinetic) was above 47.9 µg/mL.

In the case of `O=C(c1ccco1)N1CCN(C(=S)NC2CC3CCC2C3)CC1` (stereo not drawn), the kinetic solubility came out at 46.8 µg/mL (≈ 140 µM). On to `O=C(Nc1ccccc1Cl)c1csc(-c2cccnc2)n1`, for which the kinetic solubility was 4.3 µg/mL (≈ 13.6 µM). In the case of `O=C(O)c1cccc(NC(=O)c2ccccc2NC(=O)c2cccc([N+](=O)[O-])c2)c1` it was 48.3 µg/mL (≈ 119 µM); in that of `O=C(CN1C(=O)c2ccccc2C1=O)Oc1ccc(Cl)cc1`, 28 µg/mL (≈ 88.7 µM). With `Cc1csc(SCC(=O)NC(=O)C2CCCCC2)n1` the figure was above 44.8 µg/mL; with `Cc1cc(C(=O)OCC(=O)NC2CCCC(C)C2C)c(C)o1` (stereo not drawn), 12.4 µg/mL (≈ 40.3 µM).

Compound `Nc1cccc(NP(=O)(c2ccccc2)c2ccccc2)c1` yielded a kinetic solubility of 1.7 µg/mL (≈ 5.51 µM). With `Cc1ccc(S(=O)(=O)Nc2ccc3nc(C)sc3c2)c(C)c1` the figure was 30 µg/mL (≈ 90.2 µM); with `COc1ccc(CNc2ccc([N+](=O)[O-])cc2C)cc1`, 2.1 µg/mL (≈ 7.71 µM); with `CCN(CC)Cc1ccc(OC)c(Cl)c1.Cl`, above 39.6 µg/mL.

The kinetic solubility is solubility judged after dilution from a stock solution rather than from solid.
